{"source": "ChEMBL document CHEMBL1136981", "about": "“Carbamates as potent calcitonin gene-related peptide antagonists with improved solution stability” (Bioorg Med Chem Lett, 2009)", "key": {"[1]": {"biological_target": "Calcitonin gene-related peptide type 1 receptor (Homo sapiens, UniProt Q16602)", "sequence (Q16602 whole entry)": "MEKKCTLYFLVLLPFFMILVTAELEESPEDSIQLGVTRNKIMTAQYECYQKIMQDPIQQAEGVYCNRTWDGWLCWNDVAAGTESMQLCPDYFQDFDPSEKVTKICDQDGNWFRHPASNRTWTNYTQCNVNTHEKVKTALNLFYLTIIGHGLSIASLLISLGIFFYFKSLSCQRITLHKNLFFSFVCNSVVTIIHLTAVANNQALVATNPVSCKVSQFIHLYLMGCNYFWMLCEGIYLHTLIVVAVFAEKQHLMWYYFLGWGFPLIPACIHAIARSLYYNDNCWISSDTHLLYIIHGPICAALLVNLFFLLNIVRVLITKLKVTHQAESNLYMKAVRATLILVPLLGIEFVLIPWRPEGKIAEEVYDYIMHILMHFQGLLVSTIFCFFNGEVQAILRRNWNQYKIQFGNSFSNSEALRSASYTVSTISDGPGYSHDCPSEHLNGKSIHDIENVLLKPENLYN", "assay": "Binding affinity to human CGRP receptor"}, "[2]": {"assay": "Oxidative stability assessed as compound remaining in water at 0.15 mg/mL at pH 4 after 48 hrs in presence of free radical generator AAPH", "type": "physicochemical", "conditions": "read-out: Activity"}, "[3]": {"assay": "Oxidative stability assessed as formation of N-((R)-1-(1,4'-bipiperidin-1'-yl)-3-(7-methyl-1H-indazol-5-yl)-1-oxopropan-2-yl)-4-(8-fluoro-4-hydroxy-2-oxo-1,2-dihydroquinazolin-3(4H)-yl)piperidine-1-carboxamide in 0.05 M buffer at pH 5 after 12 weeks", "type": "physicochemical", "conditions": "pH 5, 2016 h"}, "[4]": {"assay": "Hydrolytic stability assessed as formation of (R)-2-(4-(8-fluoro-2-oxo-1,2-dihydroquinazolin-3(4H)-yl)piperidine-1-carboxamido)-3-(7-methyl-1H-indazol-5-yl)propanoic acid in 0.05 M buffer at pH 5 after 12 weeks", "type": "physicochemical", "set-up": "scale not given: the % may be the effect or the level left", "conditions": "pH 5, 2016 h"}, "[5]": {"assay": "Hydrolytic stability assessed as formation of 8-fluoro-3-(piperidin-4-yl)-3,4-dihydroquinazolin-2(1H)-one in 0.05 M buffer at pH 5 after 12 weeks", "type": "physicochemical", "set-up": "scale not given: the % may be the effect or the level left", "conditions": "pH 5, 2016 h"}, "[6]": {"assay": "Hydrolytic stability assessed as compound remaining in water at 0.15 mg/mL at pH 4 after 4 weeks", "type": "physicochemical", "conditions": "read-out: Activity"}, "[7]": {"assay": "Solubility at pH 7", "type": "physicochemical", "conditions": "buffer"}}, "data": [{"smiles": "Cc1cc(C[C@@H](OC(=O)N2CCC(c3cc4ccccc4cn3)CC2)C(=O)N2CCC(N3CCCCC3)CC2)cc2cn[nH]c12", "values": [{"measurement": "IC50", "setting": "[1]", "value": 0.18, "unit": "nM"}]}, {"smiles": "Cc1cc(C[C@@H](OC(=O)N2CCC(c3cc4ccccc4[nH]c3=O)CC2)C(=O)N2CCC3(CCN(C)CC3)CC2)cc2cn[nH]c12", "values": [{"measurement": "IC50", "setting": "[1]", "value": 0.044, "unit": "nM"}]}, {"smiles": "Cc1cc(C[C@@H](NC(=O)N2CCC(N3Cc4cccc(F)c4NC3=O)CC2)C(=O)N2CCC(N3CCCCC3)CC2)cc2cn[nH]c12", "values": [{"measurement": "remaining at 48 h, 0.15 mg/mL", "setting": "[2]", "value": 72, "unit": "%"}, {"measurement": "Activity", "setting": "[3]", "value": 2, "unit": "%"}, {"measurement": "Activity", "setting": "[4]", "value": 0.2, "unit": "%"}, {"measurement": "Activity", "setting": "[5]", "value": 0.4, "unit": "%"}, {"measurement": "remaining at 672 h, 0.15 mg/mL", "setting": "[6]", "value": 56, "unit": "%"}]}, {"smiles": "Cc1cc(C[C@@H](OC(=O)N2CCC(N3Cc4ccccc4NC3=O)CC2)C(=O)N2CCC(N3CCCCC3)CC2)cc2cn[nH]c12", "values": [{"measurement": "IC50", "setting": "[1]", "value": 0.01, "unit": "nM"}]}, {"smiles": "Cc1cc(C[C@@H](OC(=O)N2CCC(N3Cc4ccc(F)cc4NC3=O)CC2)C(=O)N2CCC(N3CCCCC3)CC2)cc2cn[nH]c12", "values": [{"measurement": "IC50", "setting": "[1]", "value": 0.022, "unit": "nM"}]}, {"smiles": "Cc1cc(C[C@@H](OC(=O)N2CCC(c3cc4ccccc4[nH]c3=O)CC2)C(=O)N2CCC(N3CC=CCC3)CC2)cc2cn[nH]c12", "values": [{"measurement": "IC50", "setting": "[1]", "value": 0.053, "unit": "nM"}]}, {"smiles": "Cc1cc(C[C@@H](OC(=O)N2CCC(c3cc4ccccc4[nH]c3=O)CC2)C(=O)N2CCC(N3CCCCC3)CC2)cc2cn[nH]c12", "values": [{"measurement": "remaining at 48 h, 0.15 mg/mL", "setting": "[2]", "value": 97, "unit": "%"}, {"measurement": "solubility", "setting": "[7]", "value": "> 50", "unit": "mg/mL"}, {"measurement": "IC50", "setting": "[1]", "value": 0.017, "unit": "nM"}, {"measurement": "remaining at 672 h, 0.15 mg/mL", "setting": "[6]", "value": 99, "unit": "%"}]}, {"smiles": "Cc1cc(C[C@@H](OC(=O)N2CCC(c3cc4cccc(F)c4[nH]c3=O)CC2)C(=O)N2CCC(N3CCCCC3)CC2)cc2cn[nH]c12", "values": [{"measurement": "IC50", "setting": "[1]", "value": 0.057, "unit": "nM"}]}, {"smiles": "Cc1cc(C[C@@H](OC(=O)N2CCC(n3cc(-c4ccccc4)[nH]c3=O)CC2)C(=O)N2CCC(N3CCCCC3)CC2)cc2cn[nH]c12", "values": [{"measurement": "IC50", "setting": "[1]", "value": 0.068, "unit": "nM"}]}, {"smiles": "Cc1cc(C[C@@H](OC(=O)N2CCC(c3cc4ccccc4[nH]c3=O)CC2)C(=O)N2CCCCC2)cc2cn[nH]c12", "values": [{"measurement": "IC50", "setting": "[1]", "value": 1.8, "unit": "nM"}]}, {"smiles": "Cc1cc(C[C@@H](OC(=O)N2CCC(N3Cc4cccc(F)c4NC3=O)CC2)C(=O)N2CCC(N3CCCCC3)CC2)cc2cn[nH]c12", "values": [{"measurement": "IC50", "setting": "[1]", "value": 0.011, "unit": "nM"}]}, {"smiles": "Cc1cc(C[C@@H](OC(=O)N2CCC(c3cc4ccccc4[nH]c3=O)CC2)C(=O)N2CCN(C3CCCCC3)CC2)cc2cn[nH]c12", "values": [{"measurement": "IC50", "setting": "[1]", "value": 0.02, "unit": "nM"}]}, {"smiles": "Cc1cc(C[C@@H](OC(=O)N2CCC(c3cc4ccccc4[nH]c3=O)CC2)C(=O)N2CCN(c3ccc(F)cc3)CC2)cc2cn[nH]c12", "values": [{"measurement": "IC50", "setting": "[1]", "value": 0.13, "unit": "nM"}]}, {"smiles": "Cc1cc(C[C@@H](OC(=O)N2CCC(c3cc4ccccc4[nH]c3=O)CC2)C(=O)N2CCN(c3ccncc3)CC2)cc2cn[nH]c12", "values": [{"measurement": "IC50", "setting": "[1]", "value": 0.063, "unit": "nM"}]}]}
